Measured values published in patent US20240174621A1, “METHYLQUINAZOLINONE DERIVATIVES” (Hoffmann-La Roche Inc., priority 2019, published 2024).
Like-named read-outs stand apart in the source and are kept apart here.

Experiments:
[1] = system: P-ERK in A375 cells expressing V600E mutated BRAF; assay: cells; type: cell-based; conditions: Homo sapiens, A-375, 1 h, read-out: pERK IC50 (nM) A375
Description: (§1) DMEM no-phenol red medium supplemented with L-glutamine was purchased from (Thermo Fisher Scientific). Fetal bovine serum (FBS) was purchased from VWR. Advanced ERK phospho-T202/Y204 kit—10,000 tests was purchased from Cisbio cat #64AERPEH. A375 and HCT116 cells were originally obtained from ATCC and banked by the Roche repository.
(§2) A375 is a cellular cancer model expressing V600E mutated BRAF and HCT116 a cellular cancer model expressing WT BRAF. […] ERK 1,2 phosphorylation (terminal member of the phosphorylation cascade of the MAPK pathway) is hereafter reported as main readout for the activation status of the MAPK pathway. Prior to the assay, A375 and HCT116 cell lines are maintained in DMEM no-phenol red medium supplemented with 10% fetal bovine serum (FBS). […] Briefly, 8000 cells/well in 12 μl media/well are plated in the 384-well plate and left overnight in the incubator (at 37° C. with 5% CO2-humidified atmosphere), the following day the plate is treated in duplicate with test compounds, dabrafenib and PLX8394 (the latter two as controls) at the following final drug concentrations: 10 μM-3 μM-1 μM all wells are subjected to DMSO normalization and drug incubation occurs for 1 hour. Then, 4 μl of a 4× lysis buffer supplied with the kit are added to the wells, the plate is then centrifuged for 30 second (300 rcf) and incubated on a plate shaker for 1 h at RT.
At the end of the incubation 4 μL/well of advanced P-ERK antibody solution (prepared according to manufacturer's instruction) followed by 4 μL/well of criptate P-ERK antibody solution (prepared according to manufacturer's instruction) (Cisbio cat #64AERPEH) are added to test wells. […]
(§3) The obtained fluorescence values are processed according to the formula Ratio=[…]*10000 then the average of the ratio on the blank is subtracted to all values.
Mean of the normalized points are fitted with sigmoidal curve and IC50 determined.

[2] = system: P-ERK in HCT116 cells expressing WT BRAF; type: cell-based
Description: as §1, with “repository. 384-well microplates were purchased from Greiner Bio-One, 384-well, (With Lid, HiBase, Low volume cat 784-080).” for “repository.”
as §2
At the end of the incubation 4 μL/well of advanced P-ERK antibody solution (prepared according to manufacturer's instruction) followed by 4 μL/well of criptate P-ERK antibody solution (prepared according to manufacturer's instruction) (Cisbio cat #64AERPEH) are added to test wells.
In order to allow proper data normalization control wells non drug treated reported in the following table are always included in each plate (according to manufacturer's instruction):
The plate is then centrifuged at 300 rcf for 30 second, sealed to prevent evaporation and incubated overnight in the dark at room temperature.
The plate is then analyzed and fluorescence emission value collected through a Pherastast FSX (BMG Labtech) apparatus at […].
as §3
Data are normalized in the case of HCT116 cells (BRAF activation,) considering the average of the ratio (blank subtracted) derived by DMSO only treated cells as 0% and by considering the average of the ratio (blank subtracted) derived by dabrafenib treated cells at the concentration which provides the highest signal as 100%. Individual points are fitted with either sigmoidal or bell shape curves, and the percentage of activation compared to maximum dabrafenib-mediated activation is determined. The EC50 is the concentration at which activation equal to 50% of the maximum achieved by dabrafenib is obtained.
The Percentage of Maximum paradox inducing effect from dabrafenib is determined by evaluating the percentage at which the test compound induce its maximum P-ERK signal as percentage of the highest signal produced by dabrafenib within the dose range tested.

P-gp = P-gp apical efflux ratio, LLC-PK1 cell line transfected with MDR1; type: in vitro ADME
Plasma protein binding = type: in vitro ADME; conditions: mouse, rat, minipig, monkey, human
[3] = CSF Kp,uu measurement for brain penetration, mouse; type: in vivo; conditions: Single oral dose 10 mg/kg
Method: (§4) The CSF Kp,uu is the ratio of the concentration in cerebrospinal fluid (CSF): unbound plasma exposure and Kp,uu values≥1 indicate good brain penetration. For compound Example 1, single oral dose studies in mouse and rat, sequential plasma and CSF concentrations (up to 24 h post dose) were measured by LC-MS/MS to calculate the CSF Kp,uu. For multiple oral dose studies in rat and minipig the plasma and CSF concentrations approximating Tmax (3 h post last dose) were measured by LC-MS/MS and used to calculate the CSF Kp,uu.

[4] = CSF Kp,uu measurement for brain penetration, rat; type: in vivo
Method: as §4

[5] = CSF Kp,uu measurement for brain penetration, minipig; type: in vivo; conditions: Multiple oral dosing @ 300 mg/kg/day (2-week DRF)
Method: as §4

[6] = system: A375 BRAF V600E cancer cells constituvely expressing luciferase; assay: Intracranial implanted A375-Luc; type: in vivo; conditions: daily oral 1, 5 and 20 mg/kg for 2 weeks from day 7; immunocompromised mice
Method: A375 BRAF V600E cancer cells constituvely expressing luciferase were injected intracranially in immunocompromised mice. Treatment with compound Example 1 was initiated at day 7 from the intracranial injection and continued for 2 weeks. The different groups were subject to daily oral administration of 1 mg/kg, 5 mg/kg and 20 mg/kg of Example 1 respectively.

[7] = BCS (biopharmaceutics classification system); type: physicochemical
[8] = literature; cited from earlier work
[9] = read-out: p-ERK EC50 (nM) conc. (nM) at which the compound induces P-ERK activation of 50% of that induced by dabrafenib (Positive control paradox inducer) HCT-116; HCT-116 cells; not applicable if activation does not reach 50% of dabrafenib maximum
[10] = HCT-116 cells; maximum P-ERK signal as percentage of highest dabrafenib signal

CCCS(=O)(=O)Nc1ccc(F)c(Oc2ccc3ncn(C)c(=O)c3c2)c1C#N [AR-25]
IC50 [1]: 1.1 nM | EC50 [2, 9]: 9.6 nM

Cn1cnc2ccc(Oc3c(F)ccc(NS(=O)(=O)N4CC[C@@H](F)C4)c3C#N)cc2c1=O [Example 1, (3R)-N-[2-cyano-4-fluoro-3-(3-methyl-4-oxo-quinazolin-6-yl)oxy-phenyl]-3-fluoro-pyrrolidine-1-sulfonamide]
P-gp Apical Efflux ratio, Class (P-gp; LLC-PK1 transfected with MDR1): Low | efflux ratio (P-gp; human, LLC-PK1 transfected with MDR1, presence/absence of P-gp inhibitor): 1.5 | Plasma protein binding, Class (Plasma protein binding): Very high | fraction unbound (Plasma protein binding; plasma): ≤ 0.01 | Mouse CSF Kp,uu, Class [3]: High | Kp uu ([3]; mouse, CSF / unbound plasma): ≥ 1 | Rat CSF Kp,uu, Class ([4]; Multiple oral dosing @ 300 mg/kg/day (2-week DRF)): High | Rat CSF Kp,uu, Class ([4]; Single oral dose 20 mg/kg): High | Kp uu at 3 h ([4]; rat, CSF / unbound plasma, Multiple oral dosing @ 300 mg/kg/day (2-week DRF), 3 h post last dose): ≥ 1 | Kp uu ([4]; rat, CSF / unbound plasma, Single oral dose 20 mg/kg): ≥ 1 | Temporal relationship of plasma and CSF (distribution into CSF) ([4]; single dose rat PK study, up to 24 h post dose): (PK) study and indicated fast and extensive distribution into CSF. | Minipig CSF Kp,uu, Class [5]: High | Kp uu at 3 h ([5]; minipig, CSF / unbound plasma, 3 h post last dose): ≥ 1 | Antitumor activity, intracranial A375-Luc [6]: dose dependent antitumor activity | BCS (biopharmaceutics classific. system) Class [7]: 2

COC(=O)N[C@@H](C)CNc1nccc(-c2cn(C(C)C)nc2-c2cc(Cl)cc(NS(C)(=O)=O)c2F)n1 [Encorafenib]
Brain permeability [8]: very poor brain permerability

CCCS(=O)(=O)Nc1ccc(F)c(C(=O)c2c[nH]c3ncc(-c4ccc(Cl)cc4)cc23)c1F [Vemurafenib]
Brain permeability [8]: very poor brain permerability

Cn1cnc2ccc(Oc3c(Cl)ccc(NS(=O)(=O)N4CCCC4)c3C#N)cc2c1=O [AR-31]
IC50 [1]: 311 nM | Percentage of Maximum paradox inducing effect from dabrafenib [2, 10]: 51.2% | EC50 ([2]; HCT-116 cells; not applicable if activation does not reach 50% of dabrafenib maximum; read-out: p-ERK EC50 (nM) conc. (nM) at which the compound induces P-ERK activation of 50% of that induced by dabrafenib (Positive control paradox inducer) HCT-116): > 1000 nM

CC(C)(C)c1nc(-c2cccc(NS(=O)(=O)c3c(F)cccc3F)c2F)c(-c2ccnc(N)n2)s1 [Dabrafenib]
Brain permeability [8]: very poor brain permerability

Cn1cnc2ccc(Oc3c(F)ccc(NS(=O)(=O)N4CC[C@H](F)C4)c3C#N)cc2c1=O [Example 2, (3S)-N-[2-cyano-4-fluoro-3-(3-methyl-4-oxo-quinazolin-6-yl)oxy-phenyl]-3-fluoro-pyrrolidine-1-sulfonamide]
Percentage of Maximum paradox inducing effect from dabrafenib [2, 10]: 46.2%

CN(C)S(=O)(=O)Nc1ccc(Cl)c(Oc2ccc3ncn(C)c(=O)c3c2)c1C#N [AR-30]
IC50 [1]: 406 nM | Percentage of Maximum paradox inducing effect from dabrafenib [2, 10]: 59% | EC50 [2, 9]: > 1000 nM
